{"source": "patent US20230047224A1", "about": "(Biocomposites Limited, priority 2021, published 2023)", "assay": "In vitro elution of antibiotics from beads into PBS, quantified by LCMS", "format": "physicochemical", "conditions": "beads in 4 mL PBS at 37° C, 1.5 ml exchanged per time point", "description": "Three grams of beads 2 were immersed in 4 mL of sterile phosphate-buffered saline (PBS) at 37° C. At each time point, 1.5 ml of the solution was sampled and replenished with fresh PBS. The samples were then syringe filtered using a 0.2 μm 13 mm PES syringe tilter into 2 mL amber glass vials.\nQuantification of eluted antibiotics was measured using a single quadrupole mass spectrometer (MS) coupled to a 1260 infinity II series liquid chromatography stack (LCMS) (Agilent Technologies). Depending on the concentration, samples were analysed either neat or diluted to ensure values fell within the linear range of the standard curves. Concentrations were calculated from peak areas using standard curves developed from dilutions of antibiotic prepared to known concentrations. Separation was conducted with a Poroshell 120-SB-C18 column ([…]).\nLCMS conditions were Buffer A was 99.9% H2O, 0.1% Heptafluorobutyric Acid and B was 99.9% Acetonitrile (CAN), 0.1% % Heptafluorobutyric Acid. The gradient was held with 30.0% B for 2 min before increasing linearly to 95.0% over 5 min. The 100% B was maintained for a further 1 min before rapid equilibration in 100% A. The flow rate was constant at 0.3 mL/min.\nThe gas temperature in the source was 325° C. with a flow rate of 9 L/min. The nebulizer pressure was 35 pounds per square inch and the capillary voltage […]. Fragmentor and collision energy voltages were optimized for each antibiotic.", "data": [{"substance": "tobramycin sulfate", "values": [{"measurement": "Elution concentration", "setting": "Day 1", "value": 7046.208, "unit": "µg/mL"}, {"measurement": "Elution concentration", "setting": "Day 3", "value": 4693.264, "unit": "µg/mL"}, {"measurement": "Elution concentration", "setting": "Day 4", "value": 3130.589, "unit": "µg/mL"}, {"measurement": "Elution concentration", "setting": "Day 7", "value": 1972.743, "unit": "µg/mL"}, {"measurement": "Elution concentration", "setting": "Day 8", "value": 1058.751, "unit": "µg/mL"}, {"measurement": "Elution concentration", "setting": "Day 9", "value": 574.1567, "unit": "µg/mL"}, {"measurement": "Elution concentration", "setting": "Day 10", "value": 354.742, "unit": "µg/mL"}, {"measurement": "Elution concentration", "setting": "Day 11", "value": 216.352, "unit": "µg/mL"}, {"measurement": "Elution concentration", "setting": "Day 14", "value": 135.2563, "unit": "µg/mL"}, {"measurement": "Elution concentration", "setting": "Day 15", "value": 109.8367, "unit": "µg/mL"}, {"measurement": "Elution concentration", "setting": "Day 17", "value": 15.486, "unit": "µg/mL"}, {"measurement": "Elution concentration", "setting": "Day 18", "value": 9.978, "unit": "µg/mL"}, {"measurement": "Elution concentration", "setting": "Day 21", "value": 7.125, "unit": "µg/mL"}, {"measurement": "Elution concentration", "setting": "Day 22", "value": 5.194, "unit": "µg/mL"}, {"measurement": "Elution concentration", "setting": "Day 23", "value": 3.866, "unit": "µg/mL"}, {"measurement": "Elution concentration", "setting": "Day 24", "value": 3.277, "unit": "µg/mL"}, {"measurement": "Elution concentration", "setting": "Day 25", "value": 2.913, "unit": "µg/mL"}, {"measurement": "Elution concentration", "setting": "Day 29", "value": 2.833, "unit": "µg/mL"}, {"measurement": "Elution concentration", "setting": "Day 30", "value": 2.598, "unit": "µg/mL"}, {"measurement": "Elution concentration", "setting": "Day 31", "value": 2.454, "unit": "µg/mL"}]}]}
